How the values were obtained:
Assay in all cases: relative viability (nuclei count vs DMSO), 5 days (fraction); higher = more cells survive
[1] = compound: Cc1cc(Nc2cc(N3CCN(C)CC3)nc(Sc3ccc(NC(=O)C4CC4)cc3)n2)n[nH]1 [Tozasertib]
Outline: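 Viability was read as treated-well nuclei divided by vehicle-well nuclei, using the median across plates. Lung cancer cell lines in 1536-well plates were kept overnight at 37 °C, pinned with five √10-spaced library-drug doses, and after 5 days were Hoechst-stained, imaged at 4× and counted in MetaXpress. Plates passed only with control CV below 25% and at least one doubling.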

[2] = compound: Cc1cc(Nc2cc(N3CCN(C)CC3)nc(Sc3ccc(NC(=O)C4CC4)cc3)n2)n[nH]1 [Tozasertib] + COc1cc2c(Oc3ccc(NC(=O)C4(C(=O)Nc5ccc(F)cc5)CC4)cc3F)ccnc2cc1OCCCN1CCOCC1 [Foretinib] (partner 0.25 µM)
Outline: (§1)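 Relative viability equals treated-well nuclei counts divided by vehicle-well nuclei counts. Counts came from 4× images of lung cancer cell lines grown in 1536-well plates for 5 days after pin-tool dosing on the day after seeding. Dosing used one drug alone or a fixed anchor-drug dose plus five library-drug doses (not always all listed) in √10 steps, and values are medians of duplicate plates.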

[3] = compound: Cc1cc(Nc2cc(N3CCN(C)CC3)nc(Sc3ccc(NC(=O)C4CC4)cc3)n2)n[nH]1 [Tozasertib] + N=C(N)NC(=N)NCCc1ccccc1 [Phenformin] (partner 250 µM)
Outline: as §1

[4] = compound: Cc1cc(Nc2cc(N3CCN(C)CC3)nc(Sc3ccc(NC(=O)C4CC4)cc3)n2)n[nH]1 [Tozasertib] + C[C@@H](Oc1cc(-c2cnn(C3CCNCC3)c2)cnc1N)c1c(Cl)ccc(F)c1Cl [Crizotinib] (partner 1 µM)
Outline: as §1

[5] = compound: Cc1cc(Nc2cc(N3CCN(C)CC3)nc(Sc3ccc(NC(=O)C4CC4)cc3)n2)n[nH]1 [Tozasertib] + Nc1nc2[nH]cc(CCc3ccc(C(=O)N[C@@H](CCC(=O)O)C(=O)O)cc3)c2c(=O)[nH]1 [Pemetrexed] (partner 0.2 µM)
Outline: as §1

[6] = compound: Cc1cc(Nc2cc(N3CCN(C)CC3)nc(Sc3ccc(NC(=O)C4CC4)cc3)n2)n[nH]1 [Tozasertib] + CC(C)C[C@H](NC(=O)[C@H](Cc1ccccc1)NC(=O)c1cnccn1)B(O)O [Bortezomib] (partner 0.002 µM)
Outline: as §1

[7] = compound: Cc1cc(Nc2cc(N3CCN(C)CC3)nc(Sc3ccc(NC(=O)C4CC4)cc3)n2)n[nH]1 [Tozasertib] + C[C@]1(O)C[C@@H](c2nc(-c3ccc4ccc(-c5ccccc5)nc4c3)c3c(N)nccn32)C1 [Linsitinib] (partner 1 µM)
Outline: as §1

[8] = compound: Cc1cc(Nc2cc(N3CCN(C)CC3)nc(Sc3ccc(NC(=O)C4CC4)cc3)n2)n[nH]1 [Tozasertib] + Cc1nc(NC(=O)N2CCC[C@H]2C(N)=O)sc1-c1ccnc(C(C)(C)C(F)(F)F)c1 [Alpelisib] (partner 2 µM)
Outline: as §1

[9] = compound: Cc1cc(Nc2cc(N3CCN(C)CC3)nc(Sc3ccc(NC(=O)C4CC4)cc3)n2)n[nH]1 [Tozasertib] + COc1cccc2cc(-c3nc([C@H]4CC[C@H](C(=O)O)CC4)n4ncnc(N)c34)[nH]c12 [OSI-027] (partner 0.5 µM)
Outline: as §1

[10] = compound: Cc1cc(Nc2cc(N3CCN(C)CC3)nc(Sc3ccc(NC(=O)C4CC4)cc3)n2)n[nH]1 [Tozasertib] + Cc1nc(Nc2ncc(C(=O)Nc3c(C)cccc3Cl)s2)cc(N2CCN(CCO)CC2)n1 [Dasatinib] (partner 0.075 µM)
Outline: as §1

[11] = compound: Cc1cc(Nc2cc(N3CCN(C)CC3)nc(Sc3ccc(NC(=O)C4CC4)cc3)n2)n[nH]1 [Tozasertib] + CS(=O)(=O)N1CCN(Cc2cc3nc(-c4cccc5[nH]ncc45)nc(N4CCOCC4)c3s2)CC1 [Pictilisib] (partner 1 µM)
Outline: as §1

[12] = compound: Cc1cc(Nc2cc(N3CCN(C)CC3)nc(Sc3ccc(NC(=O)C4CC4)cc3)n2)n[nH]1 [Tozasertib] + CS(=O)(=O)CCNCc1ccc(-c2ccc3ncnc(Nc4ccc(OCc5cccc(F)c5)c(Cl)c4)c3c2)o1 [Lapatinib] (partner 2 µM)
Outline: as §1

[13] = compound: Cc1cc(Nc2cc(N3CCN(C)CC3)nc(Sc3ccc(NC(=O)C4CC4)cc3)n2)n[nH]1 [Tozasertib] + CCNC(=O)c1noc(-c2cc(C(C)C)c(O)cc2O)c1-c1ccc(CN2CCOCC2)cc1 [Luminespib] (partner 0.01 µM)
Outline: as §1

Cell Line: NCI-H1563
- relative viability ([1]; 0.004 µM): 1.04
- relative viability ([1]; 0.01265 µM): 1.07
- relative viability ([1]; 0.04 µM): 1.02
- relative viability ([1]; 0.1265 µM): 0.884
- relative viability ([2]; first compound 0.004 µM): 0.892
- relative viability ([2]; first compound 0.01265 µM): 0.919
- relative viability ([2]; first compound 0.04 µM): 0.918
- relative viability ([2]; first compound 0.1265 µM): 0.92
- relative viability ([3]; first compound 0.004 µM): 0.704
- relative viability ([3]; first compound 0.01265 µM): 0.668
- relative viability ([3]; first compound 0.04 µM): 0.721
- relative viability ([3]; first compound 0.1265 µM): 0.573
- relative viability ([4]; first compound 0.004 µM): 0.843
- relative viability ([4]; first compound 0.01265 µM): 0.843
- relative viability ([4]; first compound 0.04 µM): 0.934
- relative viability ([4]; first compound 0.1265 µM): 0.84
- relative viability ([5]; first compound 0.004 µM): 0.816
- relative viability ([5]; first compound 0.01265 µM): 0.845
- relative viability ([5]; first compound 0.04 µM): 0.823
- relative viability ([5]; first compound 0.1265 µM): 0.615
- relative viability ([6]; first compound 0.004 µM): 0.873
- relative viability ([6]; first compound 0.01265 µM): 0.817
- relative viability ([6]; first compound 0.04 µM): 0.956
- relative viability ([6]; first compound 0.1265 µM): 0.861
- relative viability ([7]; first compound 0.004 µM): 1.26
- relative viability ([7]; first compound 0.01265 µM): 1.2
- relative viability ([7]; first compound 0.04 µM): 1.14
- relative viability ([7]; first compound 0.1265 µM): 1.12
- relative viability ([8]; first compound 0.004 µM): 0.944
- relative viability ([8]; first compound 0.01265 µM): 0.794
- relative viability ([8]; first compound 0.04 µM): 0.94
- relative viability ([8]; first compound 0.1265 µM): 0.874
- relative viability ([9]; first compound 0.01265 µM): 0.763
- relative viability ([9]; first compound 0.04 µM): 0.713
- relative viability ([9]; first compound 0.1265 µM): 0.701
- relative viability ([10]; first compound 0.004 µM): 0.567
- relative viability ([10]; first compound 0.01265 µM): 0.481
- relative viability ([10]; first compound 0.04 µM): 0.541
- relative viability ([10]; first compound 0.1265 µM): 0.453
- relative viability ([11]; first compound 0.004 µM): 0.61
- relative viability ([11]; first compound 0.01265 µM): 0.641
- relative viability ([11]; first compound 0.04 µM): 0.684
- relative viability ([11]; first compound 0.1265 µM): 0.53
- relative viability ([12]; first compound 0.004 µM): 0.922
- relative viability ([12]; first compound 0.01265 µM): 0.967
- relative viability ([12]; first compound 0.04 µM): 0.875
- relative viability ([13]; first compound 0.004 µM): 0.48
- relative viability ([13]; first compound 0.01265 µM): 0.635
- relative viability ([13]; first compound 0.04 µM): 0.484
- relative viability ([13]; first compound 0.1265 µM): 0.48
